Measurements: patent US20260053932A1, “COMPOUNDS AND METHODS FOR THE TARGETED DEGRADATION OF ANDROGEN RECEPTOR AND ASSOCIATED METHODS OF USE” (Arvinas Operations, Inc., priority 2020, published 2026)
Like-named read-outs stand apart in the source and are kept apart here.

Tested on: androgen receptor (AR) in LNCaP and/or VCaP cells
Experiment: Androgen Receptor ELISA assay (AR degradation)
Type: cell-based
Protocol: Androgen Receptor ELISA Assay. […] The protocols used with VCaP cells are described below.
The cells were grown for a minimum of 3 days.
(2)(i) A 10× stock plate in media was made; (ii) 2.5 μL of the 1000× stock was transferred to a new 10× stock plate (use 12 channel pipet, start at A (DMSO control) work thru H. When 247.5 µL of media was added to this plate, it served as a 10× stock; (iii) made media+1 nM R1881 for making 10× stock plate; (iv) added 247.5 μL of media with 1 nM R1881 to each well of the 10× stock plate, mix.
Then 22 μL of 10× stock was added to cells and incubated for 5 hours. […] Media was aspirated, and 100 μL 1× cell lysis buffer/well was added. The cells were placed on a shaker located in a cold room for 10 minutes and shaken at speed 7. The lysate mixture was mix and 20 μL transferred to 100 μl of Diluent in ELISA plate (0.15 μg/ml-[…]). The lysate-diluent mixture was store at 4° C. overnight on a shaker located in a cold room at speed 5 (gentle swirl).
The lysate-diluent mixture was shaken for 30 minutes at 37° C. The mouse AR antibody, anti-mouse antibody, TMB, and STOP solution were allowed to come to room temperature. The 1×ELISA buffer included in kit was made and loaded in reservoir. Media from the plate was discarded, the ELISA plate was tapped hard on paper towel, and washed 4×200 μl ELISA wash buffer using a plate washer for the first three washes and an eight channel aspirator for the fourth wash to more thoroughly aspirate the solution.
Next, 100 μL/well of mouse AR detection Ab was added; the plate was covered and shaken at 37° C. for 1 hour; media was discarded from the plates, the plates tapped on a paper towel and washed four times with 200 μL ELISA wash buffer with a plate washer for the first three washes and an eight channel aspirator for the fourth wash; 100 μL/well of anti-mouse—HRP conjugated Ab (comes with the kit) was added; the plates was cover and shaken at 37° C. for 30 minutes; the TMB reagent was allowed to come to room temperature; the media from the plate was discarded, the plates tapped on paper towel, and washed four times with 200 μL ELISA wash buffer with a plate washer for the first three washes and an eight channel aspirator for the fourth wash; plates were tapped on paper towel; 100 μL TMB was added to each well and the plate shaken for 2 minutes—while watching color. STOP solution (100 μL) was added when light blue color developed.
Data was analyzed and plotted using GraphPad Prism software. Exemplary compounds of Tables 1A, 1B, and 1C were assayed and the data shown below in Tables 2A, 2B, and 2C. DC50 (nM) categories (degradation of AR ELISA in LNCaP and/or VCaP cells) of Tables 2A, 2B, and 2C are as follows: A<1 nM; 1≤B<10 nM; 10≤C<100 nM; D≥100 nM. Dmax (%) categories (degradation of AR ELISA in LNCaP and/or VCaP cells) of Table 2 are as follows: A≥70; 50≤B<70; C<50

[1] = degradation of AR ELISA in LNCaP and/or VCaP cells, Table 2C, read-out: DC50 Code*
[2] = LNCaP and/or VCaP cells, 5 hours incubation, media with R1881, read-out: DC50 Code* (degradation of AR ELISA)

| DC50 [1] [nM] | DC50 [2] [nM] | SMILES | other results |
| --- | --- | --- | --- |
| < 1 | – | CC(C)N(CC1CCN(c2cnc(C(=O)N[C@H]3C(C)(C)[C@H](Oc4ccc(C#N)c(Cl)c4)C3(C)C)cn2)CC1)[C@H]1C[C@H](Oc2cccc3c2CN(C2CCC(=O)NC2=O)C3=O)C1 (mixture of isomers) [compound 208, rac-N-((1r,3r)-3-(3-chloro-4-cyanophenoxy)-2,2,4,4-tetramethylcyclobutyl)-5-(4-((((1r,3r)-3-((2-(2,6-dioxopiperidin-3-yl)-1-oxoisoindolin-4-yl)oxy)cyclobutyl) (isopropyl)amino)methyl)piperidin-1-yl)pyrazine-2-carboxamide] | – |
| – | < 1 | COCCN(CC1CCN(c2cnc(C(=O)N[C@H]3CC[C@H](Oc4ccc(C#N)c(Cl)c4)CC3)cn2)CC1)[C@H]1C[C@H](Oc2ccc3c(c2)C(=O)N(C2CCC(=O)NC2=O)C3)C1 (some centres unmarked) [Compound 24, N-((1r,4r)-4-(3-chloro-4-cyanophenoxy)cyclohexyl)-5-(4-((((1r,3r)-3-((2-(2,6-dioxopiperidin-3-yl)-3-oxoisoindolin-5-yl)oxy)cyclobutyl)(2-methoxyethyl)amino)methyl)piperidin-1-yl)pyrazine-2-carboxamide] | – |
| – | – | CC1(C)[C@H](NC(=O)c2ccc(N3CCC(CO[C@H]4C[C@H](Oc5ccc6c(c5)C(=O)N(C5CCC(=O)NC5=O)C6=O)C4)CC3)cc2)C(C)(C)[C@H]1Oc1ccc(C#N)c(Cl)c1 (some centres unmarked) [compound 245, N-((1r,3r)-3-(3-chloro-4-cyanophenoxy)-2,2,4,4-tetramethylcyclobutyl)-4-(4-(((1r,3r)-3-((2-(2,6-dioxopiperidin-3-yl)-1,3-dioxoisoindolin-5-yl)oxy)cyclobutoxy)methyl)piperidin-1-yl)benzamide] | DC50 (degradation of AR ELISA in LNCaP and/or VCaP cells, read-out: DC50 Code*): 1 to 10 nM |
| – | < 1 | N#Cc1ccc(O[C@H]2CC[C@H](NC(=O)c3cnc(N4CCC(CN(CC5COC5)[C@H]5C[C@H](Oc6ccc7c(c6)C(=O)N(C6CCC(=O)NC6=O)C7=O)C5)CC4)cn3)CC2)cc1Cl (some centres unmarked) [Compound 53, N-((1r,4r)-4-(3-chloro-4-cyanophenoxy)cyclohexyl)-5-(4-((((1r,3r)-3-((2-(2,6-dioxopiperidin-3-yl)-1,3-dioxoisoindolin-5-yl)oxy)cyclobutyl) (oxetan-3-ylmethyl)amino)methyl)piperidin-1-yl)pyrazine-2-carboxamide] | – |
| > 100 | – | CC1(C)[C@H](NC(=O)c2ccn([C@H]3CC[C@H](CCCOc4ccc5c(c4)C(=O)N(C4CCC(=O)NC4=O)C5=O)CC3)n2)C(C)(C)[C@H]1Oc1ccc(C#N)c(Cl)c1 (stereo partly drawn) [compound 140, N-((1r,3R)-3-(3-chloro-4-cyanophenoxy)-2,2,4,4-tetramethylcyclobutyl)-1-((1r,4R)-4-(3-((2-(2,6-dioxopiperidin-3-yl)-1,3-dioxoisoindolin-5-yl)oxy)propyl)cyclohexyl)-1H-pyrazole-3-carboxamide] | – |
| – | < 1 | N#Cc1ccc(O[C@H]2CC[C@H](NC(=O)c3cnc(N4CCC(CN(C5COC5)[C@H]5C[C@H](Oc6ccc7c(c6)C(=O)N(C6CCC(=O)NC6=O)C7=O)C5)CC4)cn3)CC2)cc1Cl (some centres unmarked) [Compound 61, N-((1r,4r)-4-(3-chloro-4-cyanophenoxy)cyclohexyl)-5-(4-((((1r,3r)-3-((2-(2,6-dioxopiperidin-3-yl)-1,3-dioxoisoindolin-5-yl)oxy)cyclobutyl) (oxetan-3-yl)amino)methyl)piperidin-1-yl)pyrazine-2-carboxamide] | – |
| – | < 1 | CC(C)N(CC1CN(c2cnc(C(=O)N[C@H]3CC[C@H](Oc4ccc(C#N)c(Cl)c4)CC3)cn2)C1)[C@H]1C[C@H](Oc2ccc3c(c2)C(=O)N(C2CCC(=O)NC2=O)C3=O)C1 (some centres unmarked) [Compound 37, N-((1r,4r)-4-(3-chloro-4-cyanophenoxy)cyclohexyl)-5-(3-((((1r,3r)-3-((2-(2,6-dioxopiperidin-3-yl)-1,3-dioxoisoindolin-5-yl)oxy)cyclobutyl) (isopropyl)amino)methyl)azetidin-1-yl)pyrazine-2-carboxamide] | – |
| < 1 | – | Cc1cc(O[C@H]2C(C)(C)[C@H](NC(=O)c3ccc(N4CCC(CN(C)[C@H]5C[C@H](Oc6ccc7c(c6)C(=O)N(C6CCC(=O)NC6=O)C7=O)C5)CC4)cc3)C2(C)C)cc(C)c1C#N (mixture of isomers) [compound 186, rac-N-((1r,3r)-3-(4-cyano-3,5-dimethylphenoxy)-2,2,4,4-tetramethylcyclobutyl)-4-(4-((((1r,3r)-3-((2-(2,6-dioxopiperidin-3-yl)-1,3-dioxoisoindolin-5-yl)oxy)cyclobutyl) (methyl)amino)methyl)piperidin-1-yl)benzamide] | – |
| < 1 | – | COc1cc(O[C@H]2C[C@H](N3CCOC4(CCN(c5ccc(C(=O)N[C@H]6C(C)(C)[C@H](Oc7cc(C)c(C#N)c(C)c7)C6(C)C)cc5)CC4)C3)C2)cc2c1C(=O)N(C1CCC(=O)NC1=O)C2=O (mixture of isomers) [compound 220, rac-N-((1r,3r)-3-(4-cyano-3,5-dimethylphenoxy)-2,2,4,4-tetramethylcyclobutyl)-4-(4-((1r,3r)-3-((2-(2,6-dioxopiperidin-3-yl)-7-methoxy-1,3-dioxoisoindolin-5-yl)oxy)cyclobutyl)-1-oxa-4,9-diazaspiro[5.5]undecan-9-yl)benzamide] | – |
| – | 1 to 10 | CCOc1cc(O[C@H]2CC[C@H](NC(=O)c3cnc(N4CC(CN(C(C)C)[C@H]5C[C@H](Oc6ccc7c(c6)C(=O)N(C6CCC(=O)NC6=O)C7=O)C5)C4)nc3)CC2)ccc1C#N (some centres unmarked) [Compound 70, N-((1r,4r)-4-(4-cyano-3-ethoxyphenoxy)cyclohexyl)-2-(3-((((1r,3r)-3-((2-(2,6-dioxopiperidin-3-yl)-1,3-dioxoisoindolin-5-yl)oxy)cyclobutyl) (isopropyl)amino)methyl)azetidin-1-yl)pyrimidine-5-carboxamide] | – |
| < 1 | – | COCCN(CC1CCN(c2ccc(C(=O)N[C@H]3C(C)(C)[C@H](Oc4cc(C)c(C#N)c(C)c4)C3(C)C)cc2)CC1)[C@H]1C[C@H](Oc2cc(OC)c3c(c2)C(=O)N(C2CCC(=O)NC2=O)C3=O)C1 (some centres unmarked) [compound 106, N-((1r,3r)-3-(4-cyano-3,5-dimethylphenoxy)-2,2,4,4-tetramethylcyclobutyl)-4-(4-((((1r,3r)-3-((2-(2,6-dioxopiperidin-3-yl)-7-methoxy-1,3-dioxoisoindolin-5-yl)oxy)cyclobutyl)(2-methoxyethyl)amino)methyl)piperidin-1-yl)benzamide] | – |
| – | < 1 | COc1cc(O[C@H]2CC[C@H](NC(=O)c3cnc(N4CCC(CN(C(C)C)[C@H]5C[C@H](Oc6ccc7c(c6)C(=O)N(C6CCC(=O)NC6=O)C7)C5)CC4)cn3)CC2)ccc1C#N (some centres unmarked) [Compound 34, N-((1r,4r)-4-(4-cyano-3-methoxyphenoxy)cyclohexyl)-5-(4-((((1r,3r)-3-((2-(2,6-dioxopiperidin-3-yl)-3-oxoisoindolin-5-yl)oxy)cyclobutyl) (isopropyl)amino)methyl)piperidin-1-yl)pyrazine-2-carboxamide] | – |
| < 1 | – | COc1cc(OCCN2CCOC3(CCN(c4ccc(C(=O)N[C@H]5C(C)(C)[C@H](Oc6cc(C)c(C#N)c(C)c6)C5(C)C)cc4)CC3)C2)cc2c1C(=O)N(C1CCC(=O)NC1=O)C2=O (some centres unmarked) [compound 215, N-((1r,3r)-3-(4-cyano-3,5-dimethylphenoxy)-2,2,4,4-tetramethylcyclobutyl)-4-(4-(2-((2-(2,6-dioxopiperidin-3-yl)-7-methoxy-1,3-dioxoisoindolin-5-yl)oxy)ethyl)-1-oxa-4,9-diazaspiro[5.5]undecan-9-yl)benzamide] | – |
| < 1 | – | [2H]C([2H])([2H])Oc1cc(O[C@H]2C[C@H](N(CC3CCN(c4ccc(C(=O)N[C@H]5C(C)(C)[C@H](Oc6cc(C)c(C#N)c(C)c6)C5(C)C)cc4)CC3)C(C)C)C2)cc2c1C(=O)N(C1CCC(=O)NC1=O)C2=O (mixture of isomers) [compound 153, rac-N-((1r,3r)-3-(4-cyano-3,5-dimethylphenoxy)-2,2,4,4-tetramethylcyclobutyl)-4-(4-((((1r,3r)-3-((2-(2,6-dioxopiperidin-3-yl)-7-(methoxy-d3)-1,3-dioxoisoindolin-5-yl)oxy)cyclobutyl) (isopropyl)amino)methyl)piperidin-1-yl)benzamide] | – |
